Reference: PubChem BioAssay AID256 (DTP/NCI, 2004)
Values joined by “and” are separate entries in the source; they are usually repeats but may differ in a detail not shown here. Equal values may be shown once. Inconclusive results and toxic doses are left out. How the source made its calls: active means survival T/C of 150% or more; inactive means T/C below 125% in these data.

Tested on: CD2F1 mice, L1210 leukemia ip, survival T/C
Assay: NCI In Vivo Anticancer Drug Screen. Data for tumor model L1210 Leukemia (intraperitoneal) in CD2F1 (CDF1) mice
Details: endpoint: mean survival time, higher = longer survival
Procedure, shortened: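 Read-out first: treated-group measurement over vehicle-control measurement, expressed as a ratio. Animals bore a transplanted tumor line and were dosed with compound or vehicle.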

[1] = dose: 25.0 mg/kg/injection, schedule: Q01DX001 (ip), vehicle: saline with Tween-80
[2] = dose: 50.0 mg/kg/injection, schedule: Q01DX001 (ip), vehicle: saline with Tween-80
[3] = dose: 100.0 mg/kg/injection, schedule: Q01DX001 (ip), vehicle: saline with Tween-80
[4] = dose: 200.0 mg/kg/injection, schedule: Q01DX001 (ip), vehicle: saline with Tween-80
[5] = dose: 400.0 mg/kg/injection, schedule: Q01DX001 (ip), vehicle: saline with Tween-80
[6] = dose: 6.25 mg/kg/injection, schedule: Q01DX009 (ip), vehicle: saline with Tween-80
[7] = dose: 12.5 mg/kg/injection, schedule: Q01DX009 (ip), vehicle: saline with Tween-80
[8] = dose: 25.0 mg/kg/injection, schedule: Q01DX009 (ip), vehicle: saline with Tween-80
[9] = dose: 75.0 mg/kg/injection, schedule: Q01DX001 (ip), vehicle: saline
[10] = dose: 150.0 mg/kg/injection, schedule: Q01DX001 (ip), vehicle: saline
[11] = dose: 50.0 mg/kg/injection, schedule: Q01DX009 (ip), vehicle: saline with Tween-80
[12] = dose: 100.0 mg/kg/injection, schedule: Q04DX002 (ip), vehicle: saline with Tween-80
[13] = dose: 200.0 mg/kg/injection, schedule: Q04DX002 (ip), vehicle: saline with Tween-80
[14] = dose: 400.0 mg/kg/injection, schedule: Q04DX002 (ip), vehicle: saline with Tween-80
[15] = dose: 100.0 mg/kg/injection, schedule: Q04DX003 (ip), vehicle: saline with Tween-80
[16] = dose: 200.0 mg/kg/injection, schedule: Q04DX003 (ip), vehicle: saline with Tween-80
[17] = dose: 400.0 mg/kg/injection, schedule: Q04DX003 (ip), vehicle: saline with Tween-80
[18] = dose: 100.0 mg/kg/injection, schedule: Q01DX009 (ip), vehicle: saline with Tween-80
[19] = dose: 200.0 mg/kg/injection, schedule: Q01DX009 (ip), vehicle: saline with Tween-80
[20] = dose: 400.0 mg/kg/injection, schedule: Q01DX009 (ip), vehicle: saline with Tween-80

Measured: T/C

Cc1ncc(COP(=O)(O)O)c(C=NC(CCCCN)C(=O)O)c1O.O.[Cu] (configuration not stated)
inactive: dose: 12.5 mg/kg/injection, schedule: Q01DX001 (ip), vehicle: saline with Tween-80 98 % of control | [1] 92 % of control | [2] 98 % of control

NC(=O)CC[n+]1ccccc1
inactive: dose: 12.5 mg/kg/injection, schedule: Q04DX003 (ip), vehicle: saline 97 % of control | dose: 25.0 mg/kg/injection, schedule: Q04DX003 (ip), vehicle: saline 97 % of control | dose: 50.0 mg/kg/injection, schedule: Q04DX003 (ip), vehicle: saline 96 % of control

Cc1nccc(N)n1
inactive: [3] 89 % of control | [4] 90 % of control | [5] 90 % of control

Nc1nc(OCc2ccccc2)ncc1C(=O)NC(CO)C(=O)O (configuration not stated)
inactive: [6] 100 % of control | [7] 98 % of control | [8] 102 % of control

O=CN(/C=C1\CC(OO)NC1=O)Cc1ccccc1 (configuration not stated)
inactive: [9] 102 % of control | [10] 108 % of control

N#CC(C#N)=C(C#N)c1ccccc1
inactive: [7] 96 % of control | [8] 98 % of control | [2] 94 % of control | [11] 94 % of control

CC(CNC1CCCCC1)OC(=O)c1ccc(N(C)C)cc1 (configuration not stated)
inactive: [9] 99 % of control | [10] 100 % of control

O=C1CC2/C(=[N+](/[O-])O)C=C([N+](=O)[O-])C(C1C(=O)Nc1ccccc1)C2[N+](=O)[O-] (configuration not stated)
inactive: [12] 110 % of control | [13] 98 % of control | [14] 110 % of control

Cc1ccc(S(=O)(=O)N(C)c2cc([N+](=O)[O-])ccc2Br)cc1
inactive: [12] 95 % of control | [13] 103 % of control | [14] 114 % of control

COc1cc2cccc(N)c2cc1OC
inactive: dose: 12.5 mg/kg/injection, schedule: Q01DX009 (ip), vehicle: water 95 % of control | dose: 25.0 mg/kg/injection, schedule: Q01DX009 (ip), vehicle: water 95 % of control | dose: 50.0 mg/kg/injection, schedule: Q01DX009 (ip), vehicle: water 95 % of control

C=C(NC(=O)C(=C)NC(=O)c1csc(C2=NC3c4csc(n4)C4NC(=O)c5csc(n5)C(C(C)(O)C(C)O)NC(=O)C5CSC(=N5)/C(=C/C)NC(=O)C(C(C)O)NC(=O)c5csc(n5)C3(CC2)NC(=O)C(C)NC(=O)C(=C)NC(=O)C(C)NC(=O)C(C(C)CC)NC2C=Cc3c(C(C)O)cc(nc3C2O)C(=O)OC4C)n1)C(N)=O (configuration not stated)
inactive: dose: 118.0 mg/kg/injection, schedule: Q04DX003 (ip), vehicle: saline 117 % of control

CCOC(=O)C(C(=O)OCC)C(=O)C(C)C
inactive: [15] 93 % of control | [16] 97 % of control | [17] 95 % of control

[N-]=[N+]=C1C(=O)NC(=O)N2C3CC(O)C(COC12)O3 (configuration not stated)
inactive: dose: 75.0 mg/kg/injection, schedule: Q01DX009 (ip), vehicle: saline with Tween-80 106 % of control | dose: 100.0 mg/kg/injection, schedule: Q01DX009 (ip), vehicle: saline sonified 114 % of control | [15] 101 % of control | dose: 150.0 mg/kg/injection, schedule: Q01DX009 (ip), vehicle: saline with Tween-80 108 % of control | dose: 200.0 mg/kg/injection, schedule: Q01DX009 (ip), vehicle: saline sonified 120 % of control | [16] 104 % of control | dose: 300.0 mg/kg/injection, schedule: Q01DX009 (ip), vehicle: saline with Tween-80 112 % of control | dose: 400.0 mg/kg/injection, schedule: Q01DX009 (ip), vehicle: saline sonified 121 % of control | [17] 108 % of control

[N-]=[N+]=Nc1cc(NC(=O)c2ccccc2)ccc1NC(=O)c1ccccc1
inactive: [11] 101 % of control | [18] 96 % of control | [19] 104 % of control

CCCCCCC(=O)O.[Pb]
inactive: dose: 75.0 mg/kg/injection, schedule: Q01DX001 (ip), vehicle: other 107 % of control | dose: 150.0 mg/kg/injection, schedule: Q01DX001 (ip), vehicle: other 97 % of control | dose: 300.0 mg/kg/injection, schedule: Q01DX001 (ip), vehicle: other 103 % of control

COC(=O)/C=C\n1cnc2ccccc21
inactive: dose: 75.0 mg/kg/injection, schedule: Q01DX009 (ip), vehicle: other 95 % of control | dose: 150.0 mg/kg/injection, schedule: Q01DX009 (ip), vehicle: other 101 % of control | dose: 300.0 mg/kg/injection, schedule: Q01DX009 (ip), vehicle: other 110 % of control

O=C1C(=O)c2cccc3cccc1c23
inactive: [3] 100 % of control | [4] 92 % of control | [5] 97 % of control

C=C1N(C)c2ccccc2C1(C)C
inactive: dose: 0.78 mg/kg/injection, schedule: Q01DX009 (ip), vehicle: saline with Tween-80 104 % of control | dose: 1.56 mg/kg/injection, schedule: Q01DX009 (ip), vehicle: saline with Tween-80 101 % of control | dose: 3.12 mg/kg/injection, schedule: Q01DX009 (ip), vehicle: saline with Tween-80 97 % of control | [6] 98 % of control | [7] 92 % of control and 100 % of control | [8] 94 % of control | [11] 94 % of control

C1CCC(C2CCCC[N-]2)[N-]C1.C1CCC(C2CCCC[N-]2)[N-]C1.[Cl][Ru][Cl] (configuration not stated)
inactive: dose: 3.13 mg/kg/injection, schedule: Q04DX003 (ip), vehicle: distilled water + Tween-80 93 % of control | dose: 6.25 mg/kg/injection, schedule: Q04DX003 (ip), vehicle: distilled water + Tween-80 88 % of control | dose: 12.5 mg/kg/injection, schedule: Q04DX003 (ip), vehicle: distilled water + Tween-80 92 % of control | dose: 25.0 mg/kg/injection, schedule: Q04DX003 (ip), vehicle: distilled water + Tween-80 88 % of control | dose: 50.0 mg/kg/injection, schedule: Q04DX003 (ip), vehicle: distilled water + Tween-80 97 % of control

O=C(c1ccccc1)c1cc(Cl)ccc1N1C(=O)C=CC1=O
inactive: [6] 94 % of control | [7] 95 % of control | [8] 100 % of control

[O-]/[N+](=C\c1ccccc1)c1ccccc1
inactive: [15] 97 % of control | [16] 90 % of control

CC(C)C(C)/C=C/CC(C)C1CCC2C1(C)CCCC21C2CC3=C(CC(OC(=O)NC(N)=O)CC3)C21 (configuration not stated)
inactive: [18] 95 % of control | [19] 104 % of control | [20] 87 % of control

O=C1c2ccccc2C(=O)N1CNCCCNCN1C(=O)c2ccccc2C1=O
inactive: [18] 98 % of control | [19] 98 % of control | [20] 96 % of control

O=[N+]([O-])c1ccc(Cn2cc[n+](Cc3ccc([N+](=O)[O-])cc3)c2)cc1
inactive: [7] 98 % of control | [1] 108 % of control | [8] 90 % of control | [2] 104 % of control | [11] 93 % of control | [3] 98 % of control

CS(=O)(=O)/C(C#N)=N/O
inactive: dose: 50.0 mg/kg/injection, schedule: Q01DX001 (ip), vehicle: saline 103 % of control | dose: 100.0 mg/kg/injection, schedule: Q01DX001 (ip), vehicle: saline 98 % of control | dose: 200.0 mg/kg/injection, schedule: Q01DX001 (ip), vehicle: saline 101 % of control

O=[n+]1ccn2cc3ccccc3cc2c1
inactive: dose: 12.5 mg/kg/injection, schedule: Q04DX003 (ip), vehicle: saline with Tween-80 86 % of control | dose: 50.0 mg/kg/injection, schedule: Q04DX003 (ip), vehicle: saline with Tween-80 100 % of control

O=C(O)c1ccccc1C(=O)Nc1cc(C(F)(F)F)ccc1Cl
inactive: [18] 104 % of control | [15] 105 % of control | [19] 96 % of control | [16] 105 % of control | [17] 111 % of control

Cc1ccc(Cl)cc1NS(=O)(=O)c1ccccc1
inactive: [18] 94 % of control | [15] 100 % of control | [19] 96 % of control | [16] 105 % of control | [20] 94 % of control | [17] 105 % of control

S=c1cn[nH]c2ccc(Br)cc12
inactive: dose: 100.0 mg/kg/injection, schedule: Q01DX001 (ip), vehicle: other 96 % of control | dose: 200.0 mg/kg/injection, schedule: Q01DX001 (ip), vehicle: other 103 % of control | dose: 400.0 mg/kg/injection, schedule: Q01DX001 (ip), vehicle: other 92 % of control
